The values below come from PMC3969779 (Journal of molecular biology, 2013).

The target in experiment [1] is T1, BRPF1 bromodomain (Homo sapiens, UniProt P55201).
T1 sequence (P55201 629-742): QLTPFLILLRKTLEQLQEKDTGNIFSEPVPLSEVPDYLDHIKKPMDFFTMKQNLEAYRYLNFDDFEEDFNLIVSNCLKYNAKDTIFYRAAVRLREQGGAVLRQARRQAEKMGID
The experiment in a line: Isothermal titration calorimetry. In kind it is binding. On the technique in general: ITC needs no label: the signal is the heat of the interaction.

Experiment [2] concerns the target T1, BRPF1 bromodomain. The experiment in a line: NMR titration. It counts as binding.
The target of experiment [3] is T2, Histone H2AK5ac peptide (1-12) (Homo sapiens).
T2 chain: SGRGK(Ac)QGGKARA
The experiment in a line: NMR titration.

For experiment [4], the target named is T3, Histone H4K8ac peptide (4-17) (Homo sapiens, H4 K8 acetylated).
T3 chain: GKGGKGLGKGGAKR
The experiment in a line: NMR titration.

Experiment [5] has as its target T4, Histone H3K14ac peptide (8-19) (Homo sapiens).
T4 chain: RKSTGGK(Ac)APRKQ
The experiment can be described thus: NMR titration.

The target of experiment [6] is T5, Histone H4K12ac peptide (4-17) (Homo sapiens).
T5 chain: GKGGKGLGK(Ac)GGAKR
The experiment can be described thus: NMR titration.

Ends that are not written are not given here.

A word on the Kd: it is a measure of binding affinity in units of concentration. The low end stands for higher affinity, the high end for lower affinity. Consider `CC(=O)NCCCC[C@H](NC(=O)CNC(=O)CNC(=O)[C@@H](NC(=O)[C@H](CO)NC(=O)[C@H](CCCCN)NC(=O)[C@@H](N)CCCNC(=N)N)[C@@H](C)O)C(=O)N[C@@H](C)C(=O)N1CCC[C@H]1C(=O)N[C@@H](CCCNC(=N)N)C(=O)N[C@@H](CCCCN)C(=O)N[C@@H](CCC(N)=O)C(N)=O` [H3K14ac (8-19)], for which the figures for the Kd in experiment [1] and in experiment [2] were 626 ± 27 µM and 597 ± 53 µM, respectively.

In turn, `CC(=O)NCCCC[C@H](NC(=O)CNC(=O)CNC(=O)[C@H](CCCCN)NC(=O)CN)C(=O)NCC(=O)N[C@@H](CC(C)C)C(=O)NCC(=O)N[C@@H](CCCCN)C(=O)NCC(=O)NCC(=O)N[C@@H](C)C(=O)N[C@@H](CCCCN)C(=O)N[C@@H](CCCNC(=N)N)C(N)=O` [H4K8ac (4-17)] showed a Kd in experiment [2] of 697 ± 57 µM.

As for `CC(=O)NCCCC[C@H](NC(=O)CNC(=O)[C@H](CC(C)C)NC(=O)CNC(=O)[C@H](CCCCN)NC(=O)CNC(=O)CNC(=O)[C@H](CCCCN)NC(=O)CN)C(=O)NCC(=O)NCC(=O)N[C@@H](C)C(=O)N[C@@H](CCCCN)C(=O)N[C@@H](CCCNC(=N)N)C(N)=O` [H4K12ac (4-17)], the Kd in experiment [1] is 86.5 ± 9.1 µM; in experiment [2], 74 ± 18 µM.

As to SGRGK(Ac)QGGKARA-NH2 [H2AK5ac (1-12)], the dissociation constant (Kd) is 48.5 ± 1.5 µM in experiment [1] and 57 ± 4 µM in experiment [2].

B1: BRPF1 bromodomain 629-742 (protein)
chain: T1 sequence (P55201 629-742)
In the case of B1, the Kd stood at 57 µM in experiment [3], 697 µM in experiment [4], 597 µM in experiment [5] and 74 µM in experiment [6].
